For assay [1], the system named is total β-catenin in SW480 colorectal cells. Nature of the assay: Total β-catenin MSD 96-well plate assay for SW480 cells. Conditions: Homo sapiens, SW480, read-out: SW480-Total beta-catenin (TBC) IC50 IP.
The test system of assay [2] is Axin2 accumulation in SW480 cells. The experiment in a line: Axin2 384 immunofluorescence assay. In kind it is cell-based. Conditions: Homo sapiens, read-out: Axin2 384 IF EC50.
For the next assay, the target named is PARP1 (Homo sapiens (Human), UniProt P09874). Nature of the assay: PARP1 biochemical assay (Trevigen kit). From the text:
PARP1 biochemical assay was purchased as a kit from Trevigen (cat.#4676-096-K) and used per manufacturers recommendations.

A further assay deals with PARP2 (Homo sapiens (Human), UniProt Q9UGN5). The experiment in a line: PARP2 biochemical assay (BPS kit).
Chain of PARP2 (Q9UGN5 whole entry): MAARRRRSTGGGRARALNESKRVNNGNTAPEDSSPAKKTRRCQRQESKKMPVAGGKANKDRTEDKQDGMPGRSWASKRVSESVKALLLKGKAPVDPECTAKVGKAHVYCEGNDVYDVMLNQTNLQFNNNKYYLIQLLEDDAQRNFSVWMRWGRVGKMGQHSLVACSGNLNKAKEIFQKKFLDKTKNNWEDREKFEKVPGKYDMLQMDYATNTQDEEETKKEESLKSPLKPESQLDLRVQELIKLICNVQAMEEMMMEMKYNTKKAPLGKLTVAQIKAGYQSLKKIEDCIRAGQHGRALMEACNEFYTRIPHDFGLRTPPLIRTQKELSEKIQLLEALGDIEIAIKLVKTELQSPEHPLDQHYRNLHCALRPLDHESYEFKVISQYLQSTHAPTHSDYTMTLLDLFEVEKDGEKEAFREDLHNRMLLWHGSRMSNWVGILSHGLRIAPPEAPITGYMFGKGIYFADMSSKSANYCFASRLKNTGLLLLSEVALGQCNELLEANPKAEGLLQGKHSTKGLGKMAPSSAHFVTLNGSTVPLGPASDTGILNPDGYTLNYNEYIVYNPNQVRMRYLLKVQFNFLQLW

Molecules are shown by their SMILES. pEC50, pIC50: −log10 of the molar value. Like-named read-outs stand apart in the source and are kept apart here.

Usually pIC50 stands for −log10 of the IC50, conventionally taken in molar units. The term pEC50 denotes −log10 of the EC50, conventionally taken in molar units.

Chain of PARP1 (P09874 whole entry): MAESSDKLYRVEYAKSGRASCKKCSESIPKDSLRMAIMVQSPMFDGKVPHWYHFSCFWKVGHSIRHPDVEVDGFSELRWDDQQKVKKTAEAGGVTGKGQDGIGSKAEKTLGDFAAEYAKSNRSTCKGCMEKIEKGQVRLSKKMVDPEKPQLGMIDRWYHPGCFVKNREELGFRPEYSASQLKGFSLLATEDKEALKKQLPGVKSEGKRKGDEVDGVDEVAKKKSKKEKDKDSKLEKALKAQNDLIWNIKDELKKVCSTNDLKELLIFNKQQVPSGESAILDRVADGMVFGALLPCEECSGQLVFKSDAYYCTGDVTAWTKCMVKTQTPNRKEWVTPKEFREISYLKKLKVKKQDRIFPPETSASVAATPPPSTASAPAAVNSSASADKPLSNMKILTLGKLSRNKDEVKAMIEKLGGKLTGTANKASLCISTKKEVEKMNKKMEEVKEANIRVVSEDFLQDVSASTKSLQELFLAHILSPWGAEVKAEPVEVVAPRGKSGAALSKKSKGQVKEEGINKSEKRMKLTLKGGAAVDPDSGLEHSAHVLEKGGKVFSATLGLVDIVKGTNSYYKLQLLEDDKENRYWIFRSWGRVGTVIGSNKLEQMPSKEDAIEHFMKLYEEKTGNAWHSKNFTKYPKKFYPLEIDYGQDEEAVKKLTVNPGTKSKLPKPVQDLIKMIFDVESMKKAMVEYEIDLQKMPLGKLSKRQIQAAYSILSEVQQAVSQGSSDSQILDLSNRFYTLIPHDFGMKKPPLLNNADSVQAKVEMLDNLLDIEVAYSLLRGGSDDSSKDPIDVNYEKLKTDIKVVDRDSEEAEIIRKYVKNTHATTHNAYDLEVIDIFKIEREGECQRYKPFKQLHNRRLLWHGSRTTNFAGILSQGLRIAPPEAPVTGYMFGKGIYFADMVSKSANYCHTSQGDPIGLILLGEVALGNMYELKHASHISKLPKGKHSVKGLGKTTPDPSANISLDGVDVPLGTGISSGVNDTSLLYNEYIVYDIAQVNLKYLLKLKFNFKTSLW

`COc1ccc2c(c1)[nH]c(=O)n2C1CCN(C(=O)CCCc2nc3ccccc3c(=O)[nH]2)CC1` [Example 8, 2-(4-(4-(5-methoxy-2-oxo-2,3-dihydro-1H-benzimidazol-1-yl)-1-piperidinyl)-4-oxobutyl)-4(3H)-quinazolinone]: in assay [1], the pIC50 was 7.34. Also, the pEC50 in assay [2] (SW480 cells, 24 hours) was 7.09.

For the molecule `O=C(CCc1nc2ccccc2c(=O)[nH]1)N[C@H]1CC[C@H](c2nnc(-c3ccccc3F)o2)CC1` [Example 126, N-((1r,4r)-4-(5-(2-fluorophenyl)-1,3,4-oxadiazol-2-yl)cyclohexyl)-3-(4-oxo-3,4-dihydroquinazolin-2-yl)propanamide], the pIC50 on PARP1 was 5.29.

Consider `O=C(CCCc1nc2ccccc2c(=O)[nH]1)N[C@H]1CC[C@H](n2c(=O)[nH]c3ccccc32)CC1` [Example 73, N-((1r,4r)-4-(2-oxo-2,3-dihydro-1H-benzo[d]imidazol-1-yl)cyclohexyl)-4-(4-oxo-3,4-dihydroquinazolin-2-yl)butanamide trifluoroacetic acid], for which, in assay [1], the pIC50 was 7.68. Also, the pEC50 in assay [2] (SW480, 24 h) was 7.53.

As for `O=C1Nc2cc(Cl)ccc2C1C1CCN(C(=O)CCCc2nc3ccccc3c(=O)[nH]2)CC1` (racemic) [Example 76, 2-(4-(4-((3S)-6-chloro-2-oxo-2,3-dihydro-1H-indol-3-yl)-1-piperidinyl)-4-oxobutyl)-4(3H)-quinazolinone trifluoroacetic acid and 2-(4-(4-((3R)-6-chloro-2-oxo-2,3-dihydro-1H-indol-3-yl)-1-piperidinyl)-4-oxobutyl)-4(3H)-quinazolinone trifluoroacetic acid], in assay [1], the pIC50 was 5.52. Besides, the pEC50 in assay [2] (SW480, 24 h) was 5.53.

As for `O=C(CCCc1nc2ccccc2c(=O)[nH]1)N1CCN(c2noc3ccccc23)CC1` [Example 71, 2-(4-(4-(benzo[d]isoxazol-3-yl)piperazin-1-yl)-4-oxobutyl)quinazolin-4(3H)-one trifluoroacetic acid], the pIC50 in assay [1] was 5.46. Moreover, the pEC50 in assay [2] (SW480 cells, 24 hours) is 5.38.

As to `N#Cc1cccc(O[C@H]2CC[C@H](NC(=O)CCSc3nc4ccccc4c(=O)[nH]3)CC2)c1` [Example 109], the negative logarithm of the IC50 (pIC50) against PARP2 was below 3.77; in assay [1], 7.32; against PARP1 it was below 4.07. The pEC50 in assay [2] (SW480 cells, 24 hours) was 7.29.

In the case of `O=C(CCc1nc2ccccc2c(=O)[nH]1)N[C@H]1CC[C@H](c2nnc(-c3ncccn3)o2)CC1` [Example 133, 3-(4-oxo-3,4-dihydroquinazolin-2-yl)-N-((1r,4r)-4-(5-(pyrimidin-2-yl)-1,3,4-oxadiazol-2-yl)cyclohexyl)propanamide], the values for the pIC50 (against PARP2; in assay [1]; on PARP1) were 5.73, below 5.00 and 5.34, respectively.

As to `O=C(CSc1nc2ccccc2c(=O)[nH]1)N[C@H]1CC[C@H](c2nnc(-c3ccccc3)o2)CC1` [Example 96, 2-((4-oxo-3,4-dihydroquinazolin-2-yl)thio)-N-((1r,4r)-4-(5-phenyl-1,3,4-oxadiazol-2-yl)cyclohexyl) acetamide], the pIC50 was 5.80 against PARP2, 7.04 in assay [1] and 4.54 at PARP1. The pEC50 in assay [2] (SW480 cells, 24 hours) is 6.27.

Turning to `O=C(CCc1cc(=O)n2ccccc2n1)N[C@H]1CC[C@H](c2nnc(-c3ccccc3)o2)CC1` [Example 38, 3-(4-oxo-4H-pyrido[1,2-a]pyrimidin-2-yl)-N-((1r,4r)-4-(5-phenyl-1,3,4-oxadiazol-2-yl)cyclohexyl) propanamide], in assay [1], the pIC50 is 5.84. The pEC50 in assay [2] (SW480 cells, 24 hours) is 5.09.

Regarding `O=C(CCSc1nc2ccccc2c(=O)[nH]1)N[C@H]1CC[C@H](c2nnc(-c3ccncc3)o2)CC1` [Example 124, 3-((4-oxo-3,4-dihydroquinazolin-2-yl)thio)-N-(trans-4-(5-(pyridin-4-yl)-1,3,4-oxadiazol-2-yl)cyclohexyl)propanamide], the pIC50 in assay [1] was 8.72. In assay [2] (SW480 cells, 24 hours), the pEC50 is 9.18.

In the case of `O=C(CCc1nc2ncccc2c(=O)[nH]1)N[C@H]1CC[C@H](c2nnc(-c3ccccc3)o2)CC1` [Example 81, 3-(4-oxo-3,4-dihydropyrido[2,3-d]pyrimidin-2-yl)-N-((1r,4r)-4-(5-phenyl-1,3,4-oxadiazol-2-yl)cyclohexyl) propanamide], the pIC50 against PARP2 was 5.07; in assay [1], 5.71. The pEC50 in assay [2] (SW480 cells, 24 hours) was 5.06.

For the molecule `O=C(CCCc1nc2ccccc2c(=O)[nH]1)N1CCC(n2nnc3ccccc32)CC1` [Example 75, 2-(4-(4-(1H-benzo[d][1,2,3]triazol-1-yl)piperidin-1-yl)-4-oxobutyl)quinazolin-4(3H)-one trifluoroacetic acid], in assay [1], the pIC50 was 6.21. The pEC50 in assay [2] (SW480 cells, 24 hours) is 6.42.

Turning to `O=C(CCc1nc2ccccc2c(=O)[nH]1)N[C@H]1CC[C@H](c2nnc(C3CCOCC3)o2)CC1` [Example 135, 3-(4-oxo-3,4-dihydroquinazolin-2-yl)-N-((1r,4r)-4-(5-(tetrahydro-2H-pyran-4-yl)-1,3,4-oxadiazol-2-yl)cyclohexyl)propanamide], the pIC50 in assay [1] is below 5.00.

On to `O=C(CCSc1nc2ccccc2c(=O)[nH]1)N[C@H]1CC[C@H](Oc2ccc(Cl)cc2)CC1` [Example 105, N-((1r,4r)-4-(4-chlorophenoxy)cyclohexyl)-3-((4-oxo-3,4-dihydroquinazolin-2-yl)thio) propanamide], for which the pIC50 in assay [1] was 7.70; against PARP1, below 4.07. For the same molecule, the pEC50 in assay [2] (SW480 cells, 24 hours) is 7.44.

For `O=C(CCCc1nc2ccccc2c(=O)[nH]1)N1CCC(c2noc3ccc(F)cc23)CC1` [Example 72, 2-(4-(4-(5-fluorobenzo[d]isoxazol-3-yl)piperidin-1-yl)-4-oxobutyl)quinazolin-4(3H)-one trifluoroacetic acid], the pIC50 in assay [1] is 5.95. In addition, the pEC50 in assay [2] (SW480 cells, 24 hours) is 6.20.

Take `O=C(CCCc1nc2ccccc2c(=O)[nH]1)N[C@H]1CC[C@H](Oc2ccccc2)C1` [Example 65, 4-(4-oxo-3,4-dihydroquinazolin-2-yl)-N-((1S,3S)-3-phenoxycyclopentyl)butanamide+4-(4-oxo-3,4-dihydroquinazolin-2-yl)-N-((1R,3R)-3-phenoxycyclopentyl)butanamide]: the pIC50 in assay [1] was below 5.00.

Turning to `O=C(CCc1nc2ccccc2c(=O)[nH]1)N[C@H]1CC[C@H](c2nnc(-c3ccccc3)o2)CC1` [Example 2, 3-(4-oxo-3,4-dihydro-2-quinazolinyl)-N-(trans-4-(5-phenyl-1,3,4-oxadiazol-2-yl)cyclohexyl)propanamide], the pIC50 against PARP2 was 6.01; in assay [1], 7.10; against PARP1, 5.57. Moreover, in assay [2] (SW480 cells, 24 hours), the pEC50 is 6.19.

For the molecule `O=C(CCCc1nc2ccccc2c(=O)[nH]1)N[C@H]1CC[C@H](c2nnc(-c3ccccc3)o2)CC1` [Example 10, 4-(4-oxo-3,4-dihydro-2-quinazolinyl)-N-(trans-4-(5-phenyl-1,3,4-oxadiazol-2-yl)cyclohexyl)butanamide], the negative logarithm of the IC50 (pIC50) in assay [1] was 7.78. For the same molecule, in assay [2] (SW480 cells, 24 hours), the pEC50 was 7.13.

For the molecule `O=C(CCc1nc2ccccc2c(=O)[nH]1)N[C@H]1CC[C@H](c2nnc(-c3ccc(Cl)cc3)o2)CC1` [Example 141, N-((1r,4r)-4-(5-(4-chlorophenyl)-1,3,4-oxadiazol-2-yl)cyclohexyl)-3-(4-oxo-3,4-dihydroquinazolin-2-yl)propanamide], the figures for the pIC50 (against PARP2; in assay [1]) were 6.17 and 6.93, respectively. Moreover, the negative-log EC50 (pEC50) in assay [2] (SW480 cells, 24 hours) was 6.64.

Turning to `O=C(CCc1nc2ccccc2c(=O)[nH]1)N[C@H]1CC[C@H](n2c(=O)oc3ccccc32)CC1` [Example 80], the pIC50 in assay [1] is 7.37. Also, the pEC50 in assay [2] (SW480 cells, 24 hours) was 6.65.

`O=C(CCc1nc2ccccc2c(=O)[nH]1)N[C@H]1CC[C@H](c2nnc(-c3ccncc3)o2)CC1` [Example 132, 3-(4-oxo-3,4-dihydroquinazolin-2-yl)-N-((1r,4r)-4-(5-(pyridin-4-yl)-1,3,4-oxadiazol-2-yl)cyclohexyl)propanamide]: the figures for the pIC50 (at PARP2; in assay [1]; against PARP1) were 5.58, 6.31 and 5.61, respectively.

For `O=C(CCc1nc2ccccc2c(=O)[nH]1)N[C@H]1CC[C@H](c2nnc(C3CCCCC3)o2)CC1` [Example 138, N-((1r,4r)-4-(5-cyclohexyl-1,3,4-oxadiazol-2-yl)cyclohexyl)-3-(4-oxo-3,4-dihydroquinazolin-2-yl)propanamide], the pIC50 against PARP2 was 5.58; on PARP1, 5.26. Besides, in assay [2] (SW480 cells, 24 hours), the pEC50 is below 4.60.

As to `O=C(CSc1nc2ccccc2c(=O)[nH]1)N[C@H]1CC[C@H](Oc2ccc(F)cc2)CC1` [Example 99, N-((1r,4r)-4-(4-fluorophenoxy)cyclohexyl)-2-((4-oxo-3,4-dihydroquinazolin-2-yl)thio) acetamide], in assay [1], the pIC50 is 5.62. Besides, the pEC50 in assay [2] (SW480 cells, 24 hours) is 5.67.

On to `O=C(CCc1nc2c(c(=O)[nH]1)CCCN2)N[C@H]1CC[C@H](c2nnc(-c3ccccc3)o2)CC1` [Example 88, 3-(4-oxo-3,4,5,6,7,8-hexahydropyrido[2,3-d]pyrimidin-2-yl)-N-((1r,4r)-4-(5-phenyl-1,3,4-oxadiazol-2-yl)cyclohexyl)propanamide], for which the pIC50 against PARP2 is 6.28; in assay [1] it was 5.99; at PARP1 it was 5.46.

Take `O=C(CCSc1nc2ccccc2c(=O)[nH]1)N[C@H]1CC[C@H](Oc2ccc(F)cc2)CC1` [Example 100, N-((1r,4r)-4-(4-fluorophenoxy)cyclohexyl)-3-((4-oxo-3,4-dihydroquinazolin-2-yl)thio) propanamide]: the pIC50 is 5.31 against PARP2 and 7.78 in assay [1]. In addition, in assay [2] (SW480 cells, 24 hours), the pEC50 is 7.64.

Consider `O=C(CCSc1nccc(=O)[nH]1)N[C@H]1CC[C@H](c2nnc(-c3ccccc3)o2)CC1` [Example 123, 3-((6-oxo-1,6-dihydropyrimidin-2-yl)thio)-N-((1r,4r)-4-(5-phenyl-1,3,4-oxadiazol-2-yl)cyclohexyl)propanamide], for which the pIC50 on PARP2 is below 3.77; in assay [1], 5.67; against PARP1 it was below 4.07. Further, in assay [2] (SW480 cells, 24 hours), the pEC50 was 5.48.
